Laboratory results published in article PMC9299130 (Journal of Thrombosis and Haemostasis, 2021).

Experiments:
[1] = tested on: rabbit platelet-rich plasma; conditions: 3µM; cited from earlier work
pooled human plasma [2] = assay: Thrombin clotting time in pooled human plasma; assay type: biochemical; conditions: baseline 16.6 s
cynomolgus monkey plasma [3] = assay: Ecarin clotting time in cynomolgus monkey plasma; assay type: biochemical; conditions: 40 μM
[4] = Pharmacokinetics in rabbits; conditions: rabbit, in vivo
recombinant FXIa [5] = target: recombinant FXIa (Rattus norvegicus, UniProt F7F105)
[6] = Ex vivo coagulation assays; assay type: in vivo, rabbit
[7] = tested on: rabbit platelet-rich plasma; assay: In vitro platelet aggregation in hirudin-treated rabbit platelet-rich plasma; assay type: cell-based; conditions: for peak platelet aggregation response to ADP (10 µM): control 59 ± 1%; for peak platelet aggregation response to ADP (10 µM) / peak platelet aggregation response to collagen (10 µg/ml) / peak platelet aggregation response to arachidonic acid (250 µM): n = 4; for peak platelet aggregation response to collagen (10 µg/ml): control 66 ± 1%; for peak platelet aggregation response to arachidonic acid (250 µM): control 67 ± 1%
cynomolgus monkey plasma [8] = assay: In vitro PT in cynomolgus monkey plasma; assay type: biochemical; conditions: 40 μM, reagent not given
recombinant FXIa [9] = target: recombinant FXIa (Canis lupus familiaris, UniProt A0A8I3NYS2); conditions: dog recombinant FXIa
recombinant FXIa [10] = target: recombinant FXIa (Macaca fascicularis, UniProt A0A2K5VVW4); assay: biochemical
[11] = tested on: electrically mediated carotid arterial thrombosis; assay: Rabbit ECAT model, prevention of thrombosis; assay type: in vivo
pooled human plasma [12] = assay: Prothrombin time in pooled human plasma; assay type: biochemical; conditions: 40 μM total plasma concentration; baseline 10.3 ± 0.1 s
recombinant FXIa [13] = target: recombinant FXIa (Oryctolagus cuniculus, UniProt G1SSQ6); assay: biochemical
[14] = ECAT rabbits, 120 min after start of infusion

Chain of recombinant FXIa (Canis lupus familiaris, UniProt A0A8I3NYS2) (A0A8I3NYS2 389-626): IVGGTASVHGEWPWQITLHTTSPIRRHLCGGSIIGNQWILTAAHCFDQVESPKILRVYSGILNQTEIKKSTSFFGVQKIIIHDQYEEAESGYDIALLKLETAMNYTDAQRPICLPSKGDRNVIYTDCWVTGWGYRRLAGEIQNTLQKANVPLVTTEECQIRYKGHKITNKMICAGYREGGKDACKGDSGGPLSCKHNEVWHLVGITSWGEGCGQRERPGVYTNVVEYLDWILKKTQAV
Chain of recombinant FXIa (Oryctolagus cuniculus, UniProt G1SSQ6) (G1SSQ6 387-624): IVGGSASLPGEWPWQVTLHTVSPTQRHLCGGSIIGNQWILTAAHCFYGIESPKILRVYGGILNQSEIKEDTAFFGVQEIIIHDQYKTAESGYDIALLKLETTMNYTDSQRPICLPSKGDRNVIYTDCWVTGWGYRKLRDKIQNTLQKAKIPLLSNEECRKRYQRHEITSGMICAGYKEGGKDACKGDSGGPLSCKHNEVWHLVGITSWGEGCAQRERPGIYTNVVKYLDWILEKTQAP
Chain of recombinant FXIa (Macaca fascicularis, UniProt A0A2K5VVW4) (A0A2K5VVW4 388-625): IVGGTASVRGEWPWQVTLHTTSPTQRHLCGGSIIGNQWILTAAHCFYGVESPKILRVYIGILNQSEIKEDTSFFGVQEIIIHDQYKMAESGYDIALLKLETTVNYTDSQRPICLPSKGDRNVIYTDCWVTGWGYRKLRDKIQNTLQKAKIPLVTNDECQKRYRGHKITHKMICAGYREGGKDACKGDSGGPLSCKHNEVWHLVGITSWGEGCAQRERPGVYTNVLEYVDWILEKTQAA
Chain of recombinant FXIa (Rattus norvegicus, UniProt F7F105) (F7F105 400-556): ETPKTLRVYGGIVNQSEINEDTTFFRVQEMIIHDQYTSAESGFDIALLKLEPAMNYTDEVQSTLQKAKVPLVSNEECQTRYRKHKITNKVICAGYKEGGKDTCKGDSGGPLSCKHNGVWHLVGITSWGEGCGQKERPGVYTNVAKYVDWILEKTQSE

SMILES: Cc1noc(C)c1S(=O)(=O)N[C@@H](CNC(=O)C[C@H]1CC(c2ccc(C(=N)N)cc2)=NO1)C(=O)O [DMP802]
- platelet aggregation responses to ADP, arachidonic acid, and collagen [1]: almost completely inhibited

SMILES: C[C@@H]1CCC[C@H](n2cnc(-c3cc(Cl)ccc3-n3cc(Cl)nn3)cc2=O)c2cc(ccn2)-c2c(cnn2C(F)F)NC1=O [milvexian]
- TT (pooled human plasma [2]; 20 μM total plasma concentration): 24.8 s
- TT (pooled human plasma [2]; 40 μM total plasma concentration): 28.4 s
- ecarin clotting time increase over baseline (cynomolgus monkey plasma [3]): 1.9 ×
- concentration at 10 min ([4]; male, iv, 0.8 mg/kg): 2000 nM
- concentration at 8 h ([4]; male, iv, 0.8 mg/kg): 100 nM
- concentration at 1 h ([4]; po, 20 mg/kg): 2000 nM
- concentration at 24 h ([4]; po, 20 mg/kg): 40 nM
- Ki (recombinant FXIa [5]): 490 ± 40 nM
- ex vivo PT [6, 14]: did not alter
- ex vivo TT [6, 14]: did not alter
- ex vivo APTT ([6]; ECAT rabbits, highest two doses, 120 min after start of infusion): elevated APTT significantly
- prolongation of ex vivo APTT needed to achieve 50% thrombus weight reduction ([6]; rabbit ECAT): 1.6 fold
- peak platelet aggregation response to ADP (10 µM) ([7]; milvexian 1 μM): 58 ± 2%
- peak platelet aggregation response to collagen (10 µg/ml) ([7]; milvexian 1 μM): 67 ± 2%
- peak platelet aggregation response to arachidonic acid (250 µM) ([7]; milvexian 1 μM): 65 ± 1%
- peak platelet aggregation response to ADP (10 µM) ([7]; milvexian 10 μM): 55 ± 2%
- peak platelet aggregation response to collagen (10 µg/ml) ([7]; milvexian 10 μM): 69 ± 1%
- peak platelet aggregation response to arachidonic acid (250 µM) ([7]; milvexian 10 μM): 66 ± 2%
- platelet aggregation to ADP, arachidonic acid, or collagen ([7]; result in words): did not alter
- PT increase over baseline (cynomolgus monkey plasma [8]): approximately 2 ×
- Ki (recombinant FXIa [9]): 0.64 ± 0.03 nM
- Ki (recombinant FXIa [10]): 0.15 ± 0.01 nM
- reduction of thrombus weight ([11]; 0.063 + 0.04 mg/kg+mg/kg/h IV, n = 6): 15 ± 10%
- 20% maximal effective concentration (antithrombotic) ([11]; total plasma concentration, 95% CI 23–128): 55 nM
- PT (pooled human plasma [12]): 12.9 ± 0.4 s
- Ki (recombinant FXIa [13]): 0.38 ± 0.01 nM
